From article PMC11489552, “Specific targeting of cancer vaccines to antigen-presenting cells via an endogenous TLR2/6 ligand derived from cysteinyl-tRNA synthetase 1” (Molecular Therapy, 2024)
Where two headings read alike, the source gives them in different places.

Columns and labels:
BMDCs [1] = type: cell-based, C57BL/6 mice
BMDCs [2] = experiment: In vitro antigen presentation ([…]/H-2K^b) in BMDCs; type: cell-based, C57BL/6 mice
Method: To examine TLR2-specific antigen uptake and presentation, BMDCs were isolated from TLR2^WT and TLR2^–/– mice as described above. BMDC cells (3 × 10^5) were seeded in the 24-well plate. […] C8138), 20 or 40 μM dynasore (Sigma, no. 324410), 1 or 2 μM cathepsin S inhibitor (MCE, no. LY 3000328), 1 or 2 μM methyl-β-cyclodextrin (Sigma-Aldrich, no. C4555), or 1 or 2 mM amiloride (Merck, no. A7410) 1 mg/mL for 30 min. After pretreatment, labeled or native samples were treated in the wells, followed by antigen uptake or presentation analyzed by flow cytometry as described above.

DC2.4 cells = experiment: In vitro cytotoxicity, CCK-8; settings: different concentrations, CCK-8 18 h after treatment
Method: (§1) The in vitro cytotoxicity test was assessed using Cell Counting Kit (CCK)-8 assays (Dojindo, no. CK04). DC2.4, Raw 264.7, and TC-1 cells were seeded onto 96-well plates for 24 h before treating them with different concentrations of EUCV and doxorubicin. A 10% CCK-8 solution was added to each well 18 h after treatment, and the plates were incubated at 37°C in a 5% CO2 atmosphere for 30 min to 4 h. The absorbance at 450 nm was detected using an instrument. Relative cell viability was calculated as a percentage of untreated control cells. To assess in vivo toxicity, E7 (100.6 nmol) and EUCV at 25 mpk (25.2 nmol) and 100 mpk (100.6 nmol) were subcutaneously injected into the backs of C57BL/6 mice. […] Mouse body weight was measured immediately after administration and at 24 h intervals, and at 48 h the mice were euthanized to measure spleen size to evaluate splenomegaly. After vaccine administration, blood was drawn at 2, 8, and 24 h, and cytokines IL-6 (BD, no. 555240) and IL-12p40 (BD, no. 555165) in serum were quantified using ELISA.

Raw 264.7 cells = experiment: In vitro cytotoxicity, CCK-8; settings: different concentrations, CCK-8 18 h after treatment
Method: as §1

TC-1 cells = experiment: In vitro cytotoxicity, CCK-8; type: cell-based, mouse; settings: different concentrations, CCK-8 18 h after treatment
Method: as §1

[3] = Pharmacokinetics: plasma level of FAM-labeled antigen after injection; type: in vivo; settings: subcutaneous, 5 nmol 5-FAM-labeled, C57BL/6 mice, n = 3 per group, plasma diluted 1:20 in PBS, fluorescence Ex/Em 494/518 nm, followed for 24 h
Method: Seven-week-old mice were intravenously or subcutaneously injected with 5 nmol labeled SLP or protein. At the indicated time point, blood was collected using ophthalmic bleeding into heparin-coated micro hematocrit capillary tubes (Fisherbrand, no. 22-362574). After being transferred blood into a microtube, plasma was isolated from blood by centrifugation at 4°C for 10 min at 1,000 × g to eliminate the cells, and then centrifugation at 4°C for 15 min 2,000 × g for removed platelets. The plasma was diluted 1:20 into PBS and measured on Infinite 200 PRO (TECAN) against a standard curve of analytes diluted into PBS (Ex/Em: 494/518 nm). All plasma was normalized to the maximum fluorescence detected in the individual injection sample and plotted as percent injection dose (% ID) versus time. The half-life was calculated by fitting the intravenous plasma curve using C=C0×e^–kt . The subcutaneous curve was fit to C=[F×ka×C0/VD(ka–k)]×(e^–k×t–e^–ka×t ), where C is the plasma concentration of indicated times, C0 is the initial serum concentration, k is the elimination rate constant, F is the systemic absorbance, ka is the absorption rate constant, VD is the volume of distribution.[72] The curve graphs were represented using nonlinear regression on GraphPad Prism.

[4] = Biodistribution to lymph nodes by IVIS imaging; type: in vivo, C57BL/6 mice; settings: subcutaneous, 5 nmol FAM-labeled, IVIS over time, n = 3 per group
Method: Seven-week-old C57BL/6 mice were subcutaneously injected with 5 nmol FAM-E-, FAM-E+U-, or FAM-labeled EUCV, respectively. After 0.5, 2, 6, or 24 h, organs were collected and washed with PBS to remove any remaining blood. For biodistribution analysis, images were obtained using an In Vivo Imaging System (IVIS) Lumina II imaging systems (PerkinElmer; excitation 494 nm, emission 518 nm) and analyzed by Living Image software.

TC-1 tumors = experiment: TC-1 tumor model, combination with anti-PD-1 blockade; type: in vivo, C57BL/6 mice
Method: TC-1 tumor cells expressing HPV16-E6 and E7 proteins and E.G7-OVA cells expressing chicken OVA were used to generate of mouse tumor model. For the therapeutic cancer vaccine model, 7-week-old C57BL/6 mice were subcutaneously injected on the right flank with TC-1 cells (1 × 10^5 cells per mouse) in 100 μL DPBS. On day 6 when tumors measured 100 mm^3 […], treatment with 5 nmol of E, E+U, and EUCV was initiated as indicated in the schedule. On day 20 mice were sacrificed, and tumor tissues were collected for TILs analysis. For the anti-PD-1 antibody combination model, 5 nmol of E and EUCV was injected subcutaneously, and 200 μg of anti-PD-1 antibody (BioXcell, clone 29F.1A12, no. BE0273) was injected intraperitoneally as indicated in the schedule. On day 20 mice were sacrificed, and tumor tissues were collected for qRT-PCR and immunohistochemistry analysis. Survival was recorded by observing the mice up to 60 days and mice were euthanized when tumor volume reached 1,500 mm^3. For the E.G7-OVA tumor model, 7-week-old C57BL/6 mice were subcutaneously injected on the right flank with E.G7-OVA cells (1 × 10^6 cells per mouse) in 100 μL DPBS. On day 3 when the tumor measured 100 mm^3 […], treatment with 5 nmol of O, O+U, and OUCV was initiated as indicated in the schedule. On day 17 mice were sacrificed, and tumor tissue was collected for TIL analysis. In all experiments, tumors were measured 3 times a week using a caliper and calculated using the formula V(volume:mm^3)=L(length)×W^2(width)×0.52 ,[5] and mice were euthanize when tumor volume reached 1,500 mm^3.

[5] = tested on: bone marrow-derived dendritic cells (BMDCs); experiment: BMDC stimulation: costimulatory molecules and cytokines; type: cell-based, C57BL/6 mice; settings: 100 nM, 24 h, ELISA
Method: Bone marrow was harvested from femurs and tibias of C57BL/6 mice. Red blood cells were lysed with Pharm Lyse lysing solution (BD, no. 555899), and the remaining cells were washed using DPBS (HyClone, no. SH30378.02), followed by centrifugation to the collection. Bone marrow cells were resuspended at a concentration of 1 × 10^6 cells/mL in RPMI-1640 medium supplemented with 10% FBS, 1% streptomycin-penicillin, and 20 ng/mL GM-CSF (R&D Systems, no. 415-ML-005). On day 3, add an additional medium of the same supplemented as described above. BMDCs were harvested on day 6 and seeded at 3 × 10^5 cells/mL in 24-well plates for stimulation.
Differentiated THP-1, BMDC (3 × 10^5 cells per well) were seeded, and after 24 h starved with serum-free-medium for 1 h. […] To measure the inflammatory cytokine level, the culture medium was harvested, centrifuged at 500 × g for 10 min at 4°C, and the supernatant was separated. The expression of inflammatory cytokines was measured using hTNF-α (BD, no. 555212), IL-12p70 (BD, no. 555256), IL-12p40 (BD, no. 555165), and IL-6 (BD, no. 555240) ELISA kits according to the manufacturer’s instructions. To investigate the expression of costimulatory molecules on the cell surface, cells were harvested using dissociation buffer (5 mM EDTA in DPBS), washed, and stained with 1 μg/mL antibody, followed by flow cytometry analysis. […]

[6] = tested on: spleen cells re-stimulated with epitope peptides; experiment: SLP screening, IFN-γ ELISpot; type: in vivo, C57BL/6 mice; settings: 20 μg SLP with U (100 μg) s.c. twice, spleen cells 7 days after final immunization
Method: Seven-week-old C57BL/6 mice were immunized subcutaneously in the right back twice at 1-week intervals using SLPs (HPV16 E6_23–42, E6_43–62, E6_123–143, E75–25, E7_43–62, and E7_76–95; 20 μg per SLP) with U (100 μg). After 7 days at final immunization, cells were isolated from the spleen and seeded in the ELISpot well in triplicates (5 × 10^5 cells per well) with 10 μg/mL of re-stimulatory 8–9 mer epitope peptides (HPV16 E6_29–37, E6_49–57, E6_129–138, E7_11–19, E7_49–57, and E7_82–90), respectively. Antigen-specific immune responses were detected by AID EliSpot Reader (AID, no. ELR08).

[7] = In vivo toxicity (body weight, spleen, serum cytokines); parameters: species or system C57BL/6 mice; settings: s.c.; EUCV 25.2 and 100.6 nmol, Pam2CSK4 100.6 nmol, poly(I:C) 2.5 nmol; serum at 2, 8, 24 h, ELISA
hTLR2/6 = molecular target: T1, hTLR2/6 (Homo sapiens, UniProt O60603+Q9Y2C9); experiment: HEK-Blue SEAP assay (NF-κB); type: cell-based; settings: HEK-Blue hTLR2/6 cells, 24 h
T1 construct: host or cells: HEK-Blue hTLR2/6 (HEK293-derived NF-kB/SEAP reporter cells)
T1 sequence (O60603 21-784): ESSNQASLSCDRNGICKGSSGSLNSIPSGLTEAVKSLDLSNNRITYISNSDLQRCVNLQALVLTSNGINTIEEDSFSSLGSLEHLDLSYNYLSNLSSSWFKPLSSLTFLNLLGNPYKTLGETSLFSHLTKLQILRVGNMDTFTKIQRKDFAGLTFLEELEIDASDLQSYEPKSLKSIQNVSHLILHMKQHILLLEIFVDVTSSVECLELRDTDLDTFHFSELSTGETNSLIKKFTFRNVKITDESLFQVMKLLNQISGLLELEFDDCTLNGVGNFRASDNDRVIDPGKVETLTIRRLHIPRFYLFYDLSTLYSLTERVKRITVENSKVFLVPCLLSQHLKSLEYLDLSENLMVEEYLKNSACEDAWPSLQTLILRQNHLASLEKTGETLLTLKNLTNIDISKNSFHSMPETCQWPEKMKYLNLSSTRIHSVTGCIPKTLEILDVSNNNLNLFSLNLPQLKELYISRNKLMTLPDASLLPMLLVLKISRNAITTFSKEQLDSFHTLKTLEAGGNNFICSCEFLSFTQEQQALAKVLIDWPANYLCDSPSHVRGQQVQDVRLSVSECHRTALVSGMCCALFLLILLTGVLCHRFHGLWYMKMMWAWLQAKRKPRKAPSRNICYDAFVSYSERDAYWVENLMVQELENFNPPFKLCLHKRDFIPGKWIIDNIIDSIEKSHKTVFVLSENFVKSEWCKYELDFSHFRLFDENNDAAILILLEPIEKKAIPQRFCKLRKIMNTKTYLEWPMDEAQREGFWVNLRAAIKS
T1 sequence (Q9Y2C9 32-796): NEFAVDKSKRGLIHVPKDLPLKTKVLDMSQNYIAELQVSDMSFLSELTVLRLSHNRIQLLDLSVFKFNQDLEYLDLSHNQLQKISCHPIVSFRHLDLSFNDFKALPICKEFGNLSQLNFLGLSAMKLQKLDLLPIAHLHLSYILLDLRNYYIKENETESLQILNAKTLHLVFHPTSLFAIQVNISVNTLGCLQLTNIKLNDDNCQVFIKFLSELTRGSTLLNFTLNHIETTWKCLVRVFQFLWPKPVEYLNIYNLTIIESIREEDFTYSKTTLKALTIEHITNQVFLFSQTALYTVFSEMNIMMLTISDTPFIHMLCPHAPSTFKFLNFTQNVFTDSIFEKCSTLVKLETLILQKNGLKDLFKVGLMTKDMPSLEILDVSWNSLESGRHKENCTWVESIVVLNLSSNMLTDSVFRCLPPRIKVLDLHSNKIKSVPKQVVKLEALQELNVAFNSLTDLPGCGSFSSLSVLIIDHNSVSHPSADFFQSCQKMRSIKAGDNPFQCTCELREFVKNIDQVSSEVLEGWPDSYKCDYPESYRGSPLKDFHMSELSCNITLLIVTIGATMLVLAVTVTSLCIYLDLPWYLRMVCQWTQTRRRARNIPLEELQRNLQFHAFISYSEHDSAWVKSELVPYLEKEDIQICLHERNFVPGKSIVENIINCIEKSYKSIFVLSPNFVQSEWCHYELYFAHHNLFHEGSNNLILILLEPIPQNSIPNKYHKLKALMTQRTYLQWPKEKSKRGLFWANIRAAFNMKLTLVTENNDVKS
Method: HEK-Blue hTLR2/6 (Invivogen, no. hkb-htlr26), hTLR2/1 (Invivogen, no. hkb-htlr21), and hTLR4 (Invivogen, no. hkb-htlr4) cells were cultured in DMEM (HyClone, no. SH30243.01) supplemented with 10% heat-inactivated FBS, 1% penicillin-streptomycin, and 100 μg/mL normocin (Invivogen, no. ant-nr-1), with added HEK-Blue Selection (Invivogen, no. hb-sel) added in medium after the cells were passaged twice. For the SEAP assay, HEK-Blue cells were harvested and resuspended to 2.8 × 10^5 cells/mL in a culture medium. […] The plates were then incubated for 24 h at 37°C, and 5% CO2 and the supernatant was collected. After removing the remaining cells by centrifugation, 20 μL of supernatant was transferred into a 96-well plate with 180 μL QUNATI-Blue solution (Invivogen, no. rep-pbs). All plates were incubated at 37°C, 5% CO2 for 3–4 h, and absorbance was measured at 620 nm with a microplate reader (TECAN, no. 30087502).

[8] = BMDCs pretreated 30 min with inhibitor at various concentrations, then FAM-labeled sample 100 nM 24 h, flow cytometry
[9] = BMDCs pretreated 30 min with inhibitor, then 100 nM O, O+U or OUCV, flow cytometry

## CN(C)CCCN1c2ccccc2Sc2ccc(Cl)cc21 [CM, chlorpromazine]
BMDCs [1]; [8]
  effect of endocytosis/processing inhibitor on E+U and EUCV uptake: reduced E+U and EUCV uptake
BMDCs [2]; [9]
  effect of inhibitor on antigen presentation (SIINFEKL/H-2K^b): reduced

## CNC(=O)O[C@H]1COc2ccc(N3CCN(C4COC4)CC3)cc2[C@@H]1NC(=O)c1ccc(F)cc1 [CS]
BMDCs [1]
  effect of endocytosis/processing inhibitor on E+U and EUCV uptake: no change
BMDCs [2]
  effect of inhibitor on antigen presentation (SIINFEKL/H-2K^b): reduction in antigen presentation

## N=C(N)NC(=O)c1nc(Cl)c(N)nc1N [amiloride]
BMDCs [1]; [8]
  effect of endocytosis/processing inhibitor on E+U and EUCV uptake: no change

## COc1cccc2c1C(=O)c1c(O)c3c(c(O)c1C2=O)C[C@@](O)(C(=O)CO)C[C@@H]3O[C@H]1C[C@H](N)[C@H](O)[C@H](C)O1 [doxorubicin]
DC2.4 cells
  cytotoxicity (relative cell viability): concentration-dependent toxicity
Raw 264.7 cells
  cytotoxicity (relative cell viability): concentration-dependent toxicity
TC-1 cells
  cytotoxicity (relative cell viability): concentration-dependent toxicity

## O=C(N/N=C/c1ccc(O)c(O)c1)c1cc2ccccc2cc1O [dynasore]
BMDCs [1]; [8]
  effect of endocytosis/processing inhibitor on E+U and EUCV uptake: reduced E+U and EUCV uptake
BMDCs [2]; [9]
  effect of inhibitor on antigen presentation (SIINFEKL/H-2K^b): reduced

## GQAEPDRAHYNIVTFCCKCD [HPV-16 E7_43–62 synthetic long peptide antigen]
[3]
  time at which the blood concentration peaked: 0.25 h
[4]
  distribution among inguinal, axillary and iliac lymph nodes: diffused distribution to axillary and iliac LNs beyond inguinal LNs near the injection site
TC-1 tumors; TC-1 tumor-bearing mice, 5 nmol s.c. days 6 and 13, anti-PD-1 200 μg i.p. days 6, 9, 12, 15, n = 8
  mortality by day 26: 100%
TC-1 tumors; TC-1 tumor-bearing mice, 60 days, n = 8 per group, printed in Figure 5C
  Complete regression (mice / group): 0/8
TC-1 tumors; TC-1 tumors, 5 nmol s.c. days 6 and 13, with or without anti-PD-1 blockade, n = 8
  tumor growth: Neither E alone nor the combination of E+αPD-1 blockade significantly suppressed tumor growth
[5]
  secretion of IL-12p70 and IL-6: absent
[6]
  IFN-γ activity among E6- and E7-derived SLPs: highest interferon gamma (IFN-γ) activity

## Pam2CSK4
[7]
  bloodstream cytokines (IL-6, IL-12p40), systemic toxicity: significant inflammatory cytokine expression
hTLR2/6
  nuclear factor κB induction (SEAP, OD620): induced nuclear factor κB in TLR2/6-expressing cells

## methyl-β-cyclodextrin [Mbcd]
BMDCs [1]; [8]
  effect of endocytosis/processing inhibitor on E+U and EUCV uptake: no change

## poly(I:C)
[7]
  bloodstream cytokines (IL-6, IL-12p40), systemic toxicity: significant inflammatory cytokine expression
